From patent publication US20120245044A1, “METHODS OF DETERMINING CHEMOTHERAPY RESPONSE IN CANCER” (TRANSLATIONAL GENOMICS RESEARCH INSTITUTE, priority 2011, published 2012)

Columns and labels:
Format in all cases: cell-based
[1] = system: H526-GLI1 versus H526-wt SCLC cells; experiment: Drug dose response, cell viability after 72 hours, GLI1 over-expressing vs parental line; conditions: H526-GLI1 compared to H526-wt
Method: (§1) Methods. Two SCLC cell lines, H69 and H526, were transduced with a GLI1 over-expressing (o/e) vector (Kasper et al, 2007) to create two lines expressing the gene: H69-GLI1 and H526-GLI1. GLI1 expression was verified by qRT-PCR. Cellular proliferation was measured over a 96-hour period. To study the drug dose response, GLI1 o/e and parental lines were treated with single-agent or combination dosing of cisplatin and etoposide, and cell viability was assessed after 72 hours. Relative GLI1 expression was compared with cisplatin response in four additional SCLC cell lines (H146, […], […]). Gene expression analysis was performed on H69-GLI1 and H69 parental cells, with two replicates for each, using Agilent (Agilent Technologies, Santa Clara, Calif.) 44K expression arrays. Data was normalized and analyzed using Genespring software (Agilent Technologies, Santa Clara, Calif.).

[2] = system: H69-GLI1 versus H69-wt SCLC cells; experiment: as above
Method: as §1, with “(A) Drug-dose response experiment in H69-GLI1 and H69-GLI2 versus H69-wt for cisplatin. […] (C) Drug-dose response experiment in H69-GLI1 versus H69-wt for cisplatin. Methods.” for “Methods.”

[3] = system: H69-GLI2 versus H69-wt SCLC cells; experiment: Drug dose response, cell viability after 72 hours; conditions: single agent, experiment H69-GLI1 and H69-GLI2 versus H69-wt (FIG. 1A/1B)
Method: as §1, with “(A) Drug-dose response experiment in H69-GLI1 and H69-GLI2 versus H69-wt for cisplatin. […] (C) Drug-dose response experiment in H69-GLI1 versus H69-wt for cisplatin. Methods.” for “Methods.”

[4] = single agent, experiment H69-GLI1 and H69-GLI2 versus H69-wt (FIG. 1A/1B), viability after 72 hours

SMILES	change in cisplatin resistance [1]	shift in cisplatin resistance ([2]; H69-GLI1 compared to H69-wt, drug dose response, FIG. 1)	fold change between H69-GLI1 and H69-wt in drug-dose response ([2]; experiment H69-GLI1 versus H69-wt only (FIG. 1C))	fold change between H69-GLI1 and H69-wt in drug-dose response [2, 4]	fold change between H69-GLI2 and H69-wt in drug-dose response [3]
N.N.[Cl][Pt][Cl] [cisplatin, cis-diamminedichloroplatinum(II)]	no significant change	≥ 1.5 fold	2.77 fold	1.76 fold	1.21 fold
COc1cc([C@@H]2c3cc4c(cc3[C@@H](O[C@@H]3O[C@@H]5CO[C@@H](C)O[C@H]5[C@H](O)[C@H]3O)[C@H]3COC(=O)[C@H]23)OCO4)cc(OC)c1O [etoposide]	–	–	–	4.55 fold	1.76 fold
